Experimental data taken from patent US20220265619A1, “COMBINATION TREATMENT OF LIVER DISEASES USING FXR AGONISTS” (Novartis AG, priority 2019, published 2022).
“Also recorded” adds a separate entry of the source.

Experiments:
human hepatocytes = assay: LDL uptake by in vitro human hepatocytes treated with FXR agonists; assay type: cell-based
Description: To mitigate the increase in peripheric LDL, we hypothesize that treating the subjects in the evening (from about 6 pm to about […], e.g. from about 8 pm to about 11 pm, preferably around 9 pm) would be reduce the impact of the drug on LDL. […] In addition, during night time, the hepatocytes rely less on cholesterol coming from the food intake (LDL and others) since the body is then fasting but more on the intrahepatic production of cholesterol via HMGCOa reductase; the activity of this enzyme is the highest during the night. Indeed, in human, whilst the Cyp7A1 activity peak at 1 and 9 pm, intracellular cholesterol levels in hepatocytes are the highest during the night (between midnight and 4 AM).

[1] = Drug-drug interaction study of tropifexor and licogliflozin in healthy but overweight to obese subjects; assay type: in vivo, human
Description: Sixteen subjects with a BMI of 25 to 35 kg/m2 were enrolled. […] Standard safety assessments were performed, with adverse event monitoring. Steady state PK parameters from Period 1 or 2 (single agent PK) were compared with that from Period 3 (combination PK) to assess the effect of potential drug interaction.

[2] = Licogliflozin 2 week study in healthy subjects and patients with T2DM; assay type: in vivo, human
Description: (§1) i.e., (2S,3R,4R,5S,6R)-2-(3-((2,3-dihydrobenzo[b][1,4]dioxin-6-yl)methyl)-4-ethylphenyl)-6-(hydroxymethyl)tetrahydro-2H-pyran-3,4,5-triol. […] Licogliflozin at 150 mg daily dose results in a significant weight loss in obese patients (˜6%) after 12 week treatment.

[3] = Dose finding study of licogliflozin in Japanese patients with obesity disease; assay type: in vivo, human; conditions: for placebo-subtracted percentage change in body weight from baseline at Week 12: Japanese patients with obesity disease
Description: This study was a randomized, double-blind, placebo controlled, dose finding study to evaluate the effect of licogliflozin (2.5, 10, 25 and 50 mg qd) in 126 Japanese patients with obesity disease. The primary objective was to examine the dose-response relationship of licogliflozin treatment in body weight reduction relative to placebo at 12 weeks. The secondary objectives included assessment of responder rates, change in parameters related to complications, visceral and subcutaneous fat area, and safety through 12 weeks of treatment.

[4] = Licogliflozin 150 mg daily, 12 week treatment in obese patients / normoglycemic and dysglycemic subjects; assay type: in vivo, human
Description: as §1

[5] = Placebo-controlled, randomized Phase 2a study of licogliflozin in NASH patients, interim analysis (NCT03205150, CLIK066X2204); assay type: in vivo, human; conditions: for patients achieving at least 5% absolute reduction in liver fat: 12 weeks (placebo 18.8%); for proportion of patients with at least a 30% relative reduction in liver fat content: 12 weeks (placebo 25%); for patients reporting diarrhea (adverse event): 12 weeks (placebo 38.9%)
Description: METHOD: Patients with histologically confirmed NASH (F1-F3) or phenotypic NASH (BMI≥27 kg/m^2 in non-Asians or 23 kg/m^2 in Asians, ALT≥50 (males) or 35 (females) and type 2 diabetes (T2DM)) received daily oral licogliflozin at 150 mg, 30 mg or placebo in a 2:2:1 ratio for 12 weeks (NCT03205150). The primary endpoint is the effect on ALT level after 12 weeks of treatment. Secondary endpoints include improvement in body weight, liver fat content and AST, amongst others. The study size is 110 of which 77 have completed (placebo (n=18); licogliflozin 30 mg (n=25) and licogliflozin 150 mg (n=34)) and are included in the interim analysis.

[6] = Phase 2 dose range finding study of licogliflozin in obese patients (CLIK066B2201); assay type: in vivo, human; conditions: obese patients (placebo 19.2%)
Description: A dose of 30 mg QD is expected to achieve approximately 70% of maximum observed efficacy (using weight loss as a downstream marker for efficacy; CLIK066B2201). Licogliflozin is currently being tested as 30 mg and 150 mg QD monotherapy in NASH (CLIK066X2204). […] To minimize the risk of GI adverse effects of the SGLT1 inhibition in the gut such as diarrhea, licogliflozin will be administered in the evening.

[7] = NASH patients; cited from earlier work
[8] = FLIGHT-FXR (NCT02855164) Part C interim analysis, tropifexor in fibrotic NASH; assay type: in vivo, human; conditions: for ALT, LS mean absolute change (SE) from baseline to Week 12: placebo −8.9 (4.19); for GGT, LS mean absolute change (SE) from baseline to Week 12: placebo −2.5 (3.55); for Body weight, LS mean absolute change (SE) from baseline to Week 12: placebo −1.14 (0.36)
[9] = Tropifexor in NASH patients, Parts A and B of study CLJN452A2202
[10] = licogliflozin 50 mg in the presence of tropifexor 140 μg vs alone
[11] = tropifexor 140 μg in the presence of licogliflozin 50 mg vs alone
[12] = 200 μg once daily, n = 46, P < 0.001
[13] = 10 to 90 μg daily for 12 weeks, NASH patients
[14] = all doses (10, 30, 60 and 90 μg), 12 weeks

## O=C(O)c1ccnc(N2CC(O)(c3ccc(OCc4c(-c5c(Cl)cccc5Cl)noc4C4CC4)cc3Cl)C2)c1 [cilofexor]
Human hepatocytes; FIG. 5
  LDL uptake by hepatocytes: reduce the LDL uptake by hepatocytes in a dose dependent manner; also recorded: decreased LDL uptake

## CCc1ccc([C@@H]2O[C@H](CO)[C@@H](O)[C@H](O)[C@H]2O)cc1Cc1ccc2c(c1)OCCO2 [licogliflozin, (2S,3R,4R,5S,6R)-2-(3-((2,3-dihydrobenzo[b][1,4]dioxin-6-yl)methyl)-4-ethylphenyl)-6-(hydroxymethyl)tetrahydro-2H-pyran-3,4,5-triol]
[1]; [10]
  increase of mean peak plasma concentration: 8%
  increase of total exposure: 12%
[2]
  pharmacokinetic profile: favorable pharmacokinetic profile
  safety and tolerability: safe and tolerated
[2]; over 2 weeks
  placebo-adjusted weight loss: up to 3%
[3]; 2.5 mg qd
  placebo-subtracted percentage change in body weight from baseline at Week 12: −1.99%
[3]; 10 mg qd
  placebo-subtracted percentage change in body weight from baseline at Week 12: −3.00%
[3]; 25 mg qd
  placebo-subtracted percentage change in body weight from baseline at Week 12: −3.54%
[3]; 50 mg qd
  placebo-subtracted percentage change in body weight from baseline at Week 12: −3.91%
[3]; 2.5, 10, 25 and 50 mg qd over 12 weeks
  safety: safe with no ketoacidosis and no new safety signals
[3]; 2.5, 10, 25 and 50 mg qd, 12 weeks
  body weight, dose dependence: dose-dependent reduction in body weight
[3]; 10, 25 and 50 mg qd dose groups (placebo 7.1%; p≤0.002 for all)
  patients achieving reduction of ≥3% in body weight: ≥ 50%
[4]; 150 mg daily dose, obese patients, after 12 week treatment
  weight loss: ~6%
[4]; 150 mg once daily, twelve weeks, normoglycemic and dysglycemic subjects
  safety and tolerability: generally safe and well tolerated with diarrhea observed as a dose-limiting toxicity
[5]; 30 mg daily oral, 12 weeks, p=NS
  placebo adjusted reduction from baseline levels of ALT: 19%
[5]; 30 mg
  patients achieving at least 5% absolute reduction in liver fat: 43.5%
  proportion of patients with at least a 30% relative reduction in liver fat content: 39.5%
  patients reporting diarrhea (adverse event): 40%
[5]; 30 mg, 12 weeks, p=0.001
  placebo adjusted reduction in HbA1c (absolute change): 0.81%
[5]; 30 mg, 12 weeks, p=0.014
  reduction in GGT: 26%
[5]; 30 mg, 12 weeks, p=0.043
  reduction in AST: 23%
[5]; 30 mg, 12 weeks, p=NS
  absolute reduction in liver fat: 2.71%
  relative reduction in liver fat content: 10%
[5]; 150 mg QD monotherapy in NASH
  ALT and liver fat, interim analysis: promising reduction of ALT and liver fat
  gastrointestinal events (mainly diarrhea), interim analysis: significant incidence of gastrointestinal events
[5]; 150 mg daily oral, 12 weeks, p=0.036
  placebo adjusted reduction from baseline levels of ALT: 27%
[5]; 150 mg
  patients achieving at least 5% absolute reduction in liver fat: 63.3%
  proportion of patients with at least a 30% relative reduction in liver fat content: 66.7%
  patients reporting diarrhea (adverse event): 76.5%
[5]; 150 mg, 12 weeks, p=0.0001
  placebo adjusted reduction in HbA1c (absolute change): 0.96%
[5]; 150 mg, 12 weeks, p=0.001
  reduction in GGT: 32%
[5]; 150 mg, 12 weeks, p=0.004
  reduction in AST: 30%
[5]; 150 mg, 12 weeks, p=0.01
  absolute reduction in liver fat: 4.45%
  relative reduction in liver fat content: 22%
[5]; 12 weeks of treatment, NASH patients
  safety and tolerability: safe and tolerable
[5]; all diarrhea events of the study
  diarrhea events that were mild: 97.4%
[5]; both doses (150 mg and 30 mg), 12 weeks, p=0.0001
  placebo adjusted reduction in body weight: ~4%
[6]; 2.5 mg QD for 24 weeks
  incidence of diarrhea: 18.4%
[6]; 10 mg QD for 24 weeks
  incidence of diarrhea: 15.8%
[6]; 50 mg QD for 24 weeks
  incidence of diarrhea: 55.3%
[6]; 150 mg QD for 24 weeks
  incidence of diarrhea: 68.8%

## CC[C@H]1[C@@H](O)[C@@H]2[C@H](CC[C@]3(C)[C@@H]([C@H](C)CCC(=O)O)CC[C@@H]23)[C@@]2(C)CC[C@@H](O)C[C@@H]12 [obeticholic acid, 6α-ethyl-chenodeoxycholic acid]
Human hepatocytes; FIG. 5
  LDL uptake by hepatocytes: reduce the LDL uptake by hepatocytes in a dose dependent manner
Human hepatocytes; FIG. 5, listed as OCA
  LDL uptake by hepatocytes: decreased LDL uptake
[7]
  safety on long term administration: associated with pruritus, as well as with lipid abnormalities

## O=C(O)c1cc(F)c2nc(N3C4CC[C@H]3CC(OCc3c(-c5ccccc5OC(F)(F)F)noc3C3CC3)C4)sc2c1 (stereo partly drawn) [tropifexor, 2-[(1R,3r,5S)-3-({5-cyclopropyl-3-[2-(trifluoromethoxy)phenyl]-1,2-oxazol-4-yl}methoxy)-8-azabicyclo[3.2.1]octan-8-yl]-4-fluoro-1,3-benzothiazole-6-carboxylic acid]
[1]; [11]
  decrease of mean peak plasma concentration (Cmax,ss): 15%
  decrease of total exposure (AUCtau,ss): 12%
[8]; 140 μg and 200 μg
  low density lipoprotein-cholesterol (LDL-C): dose-related increase
[8]; 140 μg and 200 μg vs placebo
  frequency of serious adverse events: low and comparable across groups
[8]; 140 μg once daily, n = 41, P = 0.058
  ALT, LS mean absolute change (SE) from baseline to Week 12: −20.1 (4.57) U/L
[8]; 140 μg once daily, n = 44, P < 0.001
  GGT, LS mean absolute change (SE) from baseline to Week 12: −39.2 (3.70) U/L
[8]; 140 μg once daily, n = 46, P = 0.010
  Body weight, LS mean absolute change (SE) from baseline to Week 12: −2.46 (0.38) kg
[8]; 140 μg, n=1 (placebo 0%)
  treatment discontinuation rate due to pruritus: 2%
[8]; 200 μg once daily
  pre-specified endpoints at week 12: met
[8]; 200 μg once daily, n = 39, P = 0.013
  ALT, LS mean absolute change (SE) from baseline to Week 12: −23.6 (4.48) U/L
[8]; [12]
  Body weight, LS mean absolute change (SE) from baseline to Week 12: −3.20 (0.37) kg
  GGT, LS mean absolute change (SE) from baseline to Week 12: −40.9 (3.62) U/L
[8]; 200 μg, n=3 (placebo 0%)
  treatment discontinuation rate due to pruritus: 6%
[8]; both Tropifexor groups (140 μg, 200 μg)
  patients with pruritus whose events had mild (Grade 1) severity: > 60%
[8]; higher doses (140 μg, 200 μg)
  ALT, HFF, and body weight after 12 weeks: robust and dose-dependent decreases
  safety and tolerability after 12 weeks: good safety and tolerability
[9]; [13]
  biologic activity (GGT): clear dose response
  target engagement (FGF19): clear dose response
[9]; [14]
  ALT compared to placebo: reduced across all tropifexor doses
  hepatic fat fraction compared to placebo: reduced across all tropifexor doses
[9]; up to 90 μg daily
  tolerability: generally well tolerated up to 90 μg daily without safety signals
